Laboratory results from patent US20210324092A1, “MONOCLONAL ANTIBODY COMPOSITION FOR TREATMENT OF PHILADELPHIA CHROMOSOME POSITIVE ACUTE LYMPHOBLASTIC LEUKEMIA” (priority 2018, published 2021).

B1: IL7: interleukin 7, a cytokine which is important for B and T cell development (protein, UniProt P13232 26-177, looked up)
Interleukin-7: DCDIEGKDGKQYESVLMVSIDQLLDSMKEIGSNCLNNEFNFFKRHICDANKEGMFLFRAARKLRQFLKMNSTGDFDLHLLKVSEGTTILLNCTGQVKGRKPAALGEAQPTKSLEENKSLKEQKKLNDLCFLKRLLQEIKTCWNKILMGTKEH

Test system: BCR-ABL+ pre-B cells
Test: Rescue of BCR-ABL+ pre-B cells from imatinib-induced cell death; cell cycle analysis (FIGS. 6 and 7)
Assay type: cell-based, mice
Conditions: for effect on BCR-ABL inhibitor (imatinib)-induced cell death: Imatinib 1 μM, IL7 2.5 ng/ml, CXCL12 100 ng/ml, AMD3100 10 μM

| Molecule | effect on BCR-ABL inhibitor (imatinib)-induced cell death | cell cycling under imatinib treatment (imatinib in the presence of IL7) |
| --- | --- | --- |
| c1cc(CN2CCCNCCNCCCNCC2)ccc1CN1CCCNCCNCCCNCC1 [AMD3100, reference compound] | did not affect imatinib treatment |  |
| TSLP: the ligand for CRLF2 | did not affect imatinib treatment |  |
| B1 | counteracted the BCR-ABL inhibitor-induced cell death | restored cell cycling |
